We go through 21 molecules from ChEMBL document CHEMBL4334507, “Development and Characterization of a Fluorescent Probe for GLS1 and the Application for High-Throughput Screening of Allosteric Inhibitors” (J Med Chem, 2019).

SMILES strings stand for the structures. ≈ marks a conversion by molar mass, not a printed value.

The target in series [1] is T1, Glutaminase kidney isoform, mitochondrial (Homo sapiens) (UniProt O94925).
T1 sequence (whole entry): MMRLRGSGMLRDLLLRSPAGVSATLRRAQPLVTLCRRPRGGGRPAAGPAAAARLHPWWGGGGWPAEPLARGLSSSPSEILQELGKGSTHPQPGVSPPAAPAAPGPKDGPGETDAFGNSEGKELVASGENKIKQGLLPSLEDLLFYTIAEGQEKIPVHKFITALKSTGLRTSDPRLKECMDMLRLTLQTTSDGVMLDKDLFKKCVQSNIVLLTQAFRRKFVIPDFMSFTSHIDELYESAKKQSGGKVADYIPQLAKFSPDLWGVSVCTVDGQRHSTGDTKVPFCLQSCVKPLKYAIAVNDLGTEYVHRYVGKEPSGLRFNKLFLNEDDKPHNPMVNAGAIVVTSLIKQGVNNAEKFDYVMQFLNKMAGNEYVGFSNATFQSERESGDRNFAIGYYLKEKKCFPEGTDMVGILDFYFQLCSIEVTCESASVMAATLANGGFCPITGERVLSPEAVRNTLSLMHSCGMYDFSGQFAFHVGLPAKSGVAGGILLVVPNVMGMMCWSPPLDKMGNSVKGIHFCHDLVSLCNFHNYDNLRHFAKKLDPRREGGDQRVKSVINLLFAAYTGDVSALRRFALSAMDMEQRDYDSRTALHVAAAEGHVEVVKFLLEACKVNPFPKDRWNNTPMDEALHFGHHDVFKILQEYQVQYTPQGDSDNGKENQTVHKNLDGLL
In words: Binding affinity to 1 uM human GLS1 expressed in Escherichia coli strain BL21 (DE3)pLysS by fluorescence polarization binding assay relative to control. Background: Fluorescence polarisation rises when a labelled molecule tumbles more slowly, as on binding a larger partner.

Series [2] has as its target T2, Glutaminase kidney isoform, mitochondrial (Homo sapiens, UniProt O94925).
T2 sequence (O94925 whole entry): T1 sequence (whole entry)
In words: Binding affinity to human GLS1 expressed in Escherichia coli strain BL21 (DE3)pLysS by fluorescence polarization binding assay.

Series [3] concerns the target T2, Glutaminase kidney isoform, mitochondrial. In words: (§1) Binding affinity to human GLS1 expressed in Escherichia coli strain BL21 (DE3)pLysS by SPR assay. On the technique in general: Surface plasmon resonance follows binding to a sensor surface in real time, without labels.
The target of series [4] is T1, Glutaminase kidney isoform, mitochondrial (Homo sapiens). The series is described as §1.
The target of series [5] is Serum albumin (Bos taurus) (UniProt P02769). In words: Binding affinity to BSA by fluorescence polarization binding assay relative to control. As to conditions: bovine; call rule not given here.
In series [6] the target is T2, Glutaminase kidney isoform, mitochondrial. In words: Inhibition of human GLS1 expressed in Escherichia coli strain BL21 (DE3)pLysS pre-incubated for 10 mins before glutamine addition and measured after 60 mins by bovine liver glutamate dehydrogenase based coupled enzyme assay.
The target is the same in series [7]. In words: Inhibition of N-[2-[(3',6'-dihydroxy-1-oxo-spiro[isobenzofuran-3,9'-xanthene]-5-yl)carbamothioylamino]ethyl]-N'-[6-[4-[5-[[2-(2-pyridyl)acetyl]amino]-1,3,4-thiadiazol-2-yl]butyl]pyridazin-3-yl]pentanediamide binding to human GLS1 expressed in Escherichia coli strain BL21 (DE3)pLysS by fluorescence polarization binding assay.
Another series deals with MDA-MB-436. In words: Antiproliferative activity against human MDA-MB-436 cells assessed as reduction in cell viability incubated for 72 hrs by MTT assay. Particulars: MDA-MB-436, 72 h. Type of series: functional, cell-based. On the technique in general: Formazan colour is commonly taken as a measure of viable cells.
A further series deals with HCT-116. In words: Antiproliferative activity against human HCT116 cells assessed as reduction in cell viability incubated for 72 hrs by MTT assay. It is filed as functional, cell-based. As to conditions: HCT-116, 72 h.
In series [8] the target is T1, Glutaminase kidney isoform, mitochondrial (Homo sapiens).
Description: Binding affinity to human GLS1 expressed in Escherichia coli strain BL21 (DE3)pLysS assessed as change in melting temperature by SYPRO orange dye based protein thermal shift assay
Series [9] is described as follows: Distribution coefficient, logD of the compound incubated for 72 hrs by LC-MS based shake-flask method. It is filed as physicochemical. As to conditions: octanol/water.
Series [10] in a line: Ratio of intrinsic aqueous solubility of the test compound to CB839 incubated for 72 hrs by LC-MS based shake-flask method. As to conditions: buffer. Type of series: physicochemical.
Series [11] in a line: Intrinsic aqueous solubility incubated for 72 hrs by LC-MS based shake-flask method. Type of series: physicochemical. Particulars: buffer.

Sequence of Serum albumin (Bos taurus) (P02769 whole entry, looked up, canonical isoform): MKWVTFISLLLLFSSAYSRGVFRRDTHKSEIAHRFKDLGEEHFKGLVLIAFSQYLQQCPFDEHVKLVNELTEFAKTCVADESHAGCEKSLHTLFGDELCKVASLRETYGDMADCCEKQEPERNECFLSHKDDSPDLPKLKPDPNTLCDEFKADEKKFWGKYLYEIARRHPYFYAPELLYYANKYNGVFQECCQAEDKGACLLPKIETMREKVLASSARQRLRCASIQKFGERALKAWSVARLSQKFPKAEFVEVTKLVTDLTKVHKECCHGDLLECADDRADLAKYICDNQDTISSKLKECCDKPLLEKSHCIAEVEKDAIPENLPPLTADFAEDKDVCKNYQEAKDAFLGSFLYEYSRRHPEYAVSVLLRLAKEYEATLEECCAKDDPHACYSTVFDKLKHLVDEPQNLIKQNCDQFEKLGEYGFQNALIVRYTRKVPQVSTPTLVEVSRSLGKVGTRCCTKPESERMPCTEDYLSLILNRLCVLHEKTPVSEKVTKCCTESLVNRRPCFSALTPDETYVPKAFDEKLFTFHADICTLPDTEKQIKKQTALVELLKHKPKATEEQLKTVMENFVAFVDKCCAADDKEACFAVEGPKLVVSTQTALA

As a reminder, the Kd is the equilibrium constant for the complex coming apart. For `O=C(CCCC(=O)Nc1ccc(CCCCc2nnc(NC(=O)Cc3ccccn3)s2)nn1)NCCNC(=S)Nc1ccc2c(c1)C1(OC2=O)c2ccc(O)cc2Oc2cc(O)ccc21`, the fold change (FC) in [1] is 2. The dissociation constant (Kd) was 450 nM in series [2] and 610 nM in series [3]. Also, the Activity result in series [4] is “Dose-dependent effect”; in series [5], “Not Active”.
As usually defined, the IC50 is the point on the concentration scale where inhibition reaches its midpoint. With `Cc1ccc(Cn2cc(CCC(=O)Nc3nnc(CCCCc4nnc(NC(=O)Cc5ccccc5)s4)s3)nn2)cc1`, the IC50 in [6] amounted to 420 nM; in series [7], 560 nM; in the series on MDA-MB-436, 1790 nM; with HCT-116, 1570 nM.
In the case of `Cc1ccc(Cn2cc(CCC(=O)Nc3ccc(CCCCc4nnc(NC(=O)Cc5ccccn5)s4)nn3)nn2)c(C)c1`, the IC50 is 110 nM in [6], 210 nM in series [7], 200 nM with MDA-MB-436 and 720 nM with HCT-116.
Broadly, the ΔTm is the shift of the melting midpoint relative to a reference. In the case of `Cc1ccc(Cn2cc(CCC(=O)Nc3nnc(CCCCc4nnc(NC(=O)Cc5ccccc5)s4)s3)nn2)c(C)c1`, the IC50 in [6] was determined as 280 nM; in series [7], 500 nM; in the series with MDA-MB-436 it was 430 nM; in the series on HCT-116, 1010 nM. This molecule also showed an equilibrium dissociation constant (Kd) in [3] of 350 nM. Also, the shift in melting temperature (ΔTm) in [8] is 7.7 °C.
As for `O=C(CCc1cn(Cc2ccc([N+](=O)[O-])cc2)nn1)Nc1nnc(CCCCc2nnc(NC(=O)Cc3ccccc3)s2)s1`, the IC50 in [6] turned out to be 2500 nM; in series [7] it was 2750 nM; with MDA-MB-436 it was 10700 nM; in the series on HCT-116 it was 1050 nM.
In the same order, the values of `O=C(CCc1cn(Cc2ccc(F)cc2)nn1)Nc1nnc(CCCCc2nnc(NC(=O)Cc3ccccc3)s2)s1` are 1110 nM, 1220 nM, 350 nM and 1090 nM.
For the molecule `Cc1cccc(C)c1Cn1cc(CCC(=O)Nc2nnc(CCCCc3nnc(NC(=O)Cc4ccccc4)s3)s2)nn1`, the IC50 was 520 nM in series [6], 780 nM in series [7], 760 nM in the series on MDA-MB-436 and 740 nM in the series on HCT-116.
With `COc1ccc(Cn2cc(CCC(=O)Nc3ccc(CCCCc4nnc(NC(=O)Cc5ccccn5)s4)nn3)nn2)cc1OC`, the half-inhibitory concentration (IC50) in series [6] came to 330 nM; in series [7], 400 nM; in the series with MDA-MB-436 it was 400 nM; in the series on HCT-116 it was 380 nM.
The logD is the decadic logarithm of the distribution of all forms, ionised or not, between an organic phase and buffer at a given pH. By solubility (thermodynamic) is commonly meant solubility found after equilibrating the solid with the medium. Turning to `Cc1ccc(Cn2cc(CCC(=O)Nc3ccc(CCCCc4nnc(NC(=O)Cc5ccccn5)s4)nn3)nn2)cc1`, the IC50 amounted to 27 nM in [6], 41 nM in series [7], 180 nM with MDA-MB-436 and 150 nM with HCT-116. In series [9], the logD at 72 h stood at 1.29. In series [10], the Ratio is on record as 9. The same molecule showed a Kd in series [3] of 68 nM. In addition, the thermodynamic solubility at 72 h in series [11] was determined as 20.8 µg/mL (≈ 34.9 µM). Further, in series [8], the ΔTm was 16.5 °C.
Turning to `Cc1cccc(C)c1Cn1cc(CCC(=O)Nc2ccc(CCCCc3nnc(NC(=O)Cc4ccccn4)s3)nn2)nn1`, the IC50 is 320 nM in [6], 460 nM in series [7], 340 nM in the series with MDA-MB-436 and 270 nM in the series on HCT-116.
For `O=C(Cc1ccccc1)Nc1nnc(CCSCCc2nnc(NC(=O)Cc3ccccc3)s2)s1`, the IC50 is 2400 nM with MDA-MB-436 and 1020 nM in the series with HCT-116.
As for `O=C(CCc1cn(Cc2ccc(OC(F)(F)F)cc2)nn1)Nc1ccc(CCCCc2nnc(NC(=O)Cc3ccccn3)s2)nn1`, the IC50 in series [6] came out at 300 nM; in [7], 390 nM; in the series with MDA-MB-436 it was 310 nM; in the series with HCT-116, 250 nM.
`O=C(Cc1cccc(OC(F)(F)F)c1)Nc1ccc(CCCCc2nnc(NC(=O)Cc3ccccn3)s2)nn1`: in [9], the logD at 72 h came to 1.9. In addition, the figures for the 50% inhibitory concentration (IC50) in the series with MDA-MB-436 and with HCT-116 were 520 nM and 60 nM, respectively.
In the case of `COc1ccc(Cn2cc(CCC(=O)Nc3nnc(CCCCc4nnc(NC(=O)Cc5ccccc5)s4)s3)nn2)cc1OC`, the IC50 in series [6] was determined as 500 nM; in [7] it was 850 nM; in the series on MDA-MB-436, 800 nM; in the series with HCT-116, 450 nM.
In the case of `O=C(CCc1cn(Cc2ccc(Cl)cc2)nn1)Nc1nnc(CCCCc2nnc(NC(=O)Cc3ccccc3)s2)s1`, the 50% inhibitory concentration (IC50) in series [6] came out at 1250 nM; in series [7], 1370 nM; with MDA-MB-436, 1140 nM; in the series with HCT-116, 3410 nM.
As to `COc1ccc(Cn2cc(CCC(=O)Nc3nnc(CCCCc4nnc(NC(=O)Cc5ccccc5)s4)s3)nn2)cc1`, the 50% inhibitory concentration (IC50) came out at 510 nM in series [6], 760 nM in [7], 5490 nM in the series on MDA-MB-436 and 560 nM in the series on HCT-116.
Regarding `COc1ccc(Cn2cc(CCC(=O)Nc3ccc(CCCCc4nnc(NC(=O)Cc5ccccn5)s4)nn3)nn2)cc1`, the IC50 is 150 nM in series [6], 190 nM in series [7], 630 nM in the series on MDA-MB-436 and 230 nM in the series with HCT-116.
As to `O=C(CCc1cn(Cc2ccc(Br)cc2)nn1)Nc1nnc(CCCCc2nnc(NC(=O)Cc3ccccc3)s2)s1`, the IC50 in [6] worked out at 980 nM; in series [7] it was 1080 nM; in the series with MDA-MB-436, 4060 nM; in the series on HCT-116 it was 1850 nM.
The matching figures for `O=C(CCc1cn(Cc2ccccc2)nn1)Nc1nnc(CCCCc2nnc(NC(=O)Cc3ccccc3)s2)s1`: 900 nM, 920 nM, 1160 nM and 4780 nM.
Turning to `O=C(CCc1cn(Cc2ccc(C(F)(F)F)cc2)nn1)Nc1ccc(CCCCc2nnc(NC(=O)Cc3ccccn3)s2)nn1`, the IC50 in series [6] was determined as 44 nM; in [7], 73 nM; in the series with MDA-MB-436, 210 nM; with HCT-116, 180 nM.
Take `N#Cc1ccc(Cn2cc(CCC(=O)Nc3nnc(CCCCc4nnc(NC(=O)Cc5ccccc5)s4)s3)nn2)cc1`: the IC50 in series [6] amounted to 840 nM; in series [7] it was 930 nM; in the series on MDA-MB-436 it was 2950 nM; in the series with HCT-116, 5140 nM.
